Data published in US20080312435A1, “Imine Compound” (TAISHO PHARMACEUTICAL CO., LTD., priority 2004, published 2008).

Molecular target: T1, human CB2 receptor (Homo sapiens, UniProt P34972)
T1 construct: expressed in transfected cells
T1 sequence (P34972 whole entry): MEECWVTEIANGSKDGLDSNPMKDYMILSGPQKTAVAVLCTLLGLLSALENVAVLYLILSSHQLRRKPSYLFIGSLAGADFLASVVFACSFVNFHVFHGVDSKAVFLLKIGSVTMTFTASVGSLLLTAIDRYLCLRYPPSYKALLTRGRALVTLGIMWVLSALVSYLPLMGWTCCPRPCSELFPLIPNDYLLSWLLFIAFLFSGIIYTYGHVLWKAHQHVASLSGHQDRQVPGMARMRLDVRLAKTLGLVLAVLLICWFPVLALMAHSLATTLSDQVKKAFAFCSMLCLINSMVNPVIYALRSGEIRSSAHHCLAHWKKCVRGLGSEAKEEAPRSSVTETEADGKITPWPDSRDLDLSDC
Assay: Human CB2 receptor binding inhibition test ([3H]CP-55,940, CHO membrane fractions)
Details: [3H]CP-55,940, membrane fractions of CHO cells stably expressing human CB2 receptor, 25° C., 2 hours; read-out: CB2 IC50 (Inhibition of binding to human CB2 receptor)
Summary of the method: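 Membranes from CHO-DHFR(−) cells stably expressing human CB2 used for [3H]CP-55,940 binding; filter-bound radioactivity counted by scintillation after washes with 0.1% BSA buffer. Nonspecific binding defined with 2.0 μM CP-55,940; IC50 for inhibition of specific binding.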
`COc1ccc(C(=O)/N=c2\sc(C(C)(C)C)c(C)n2CC2CC2)c(C)c1` [compound 261] showed an IC50 of 1 nM.
Compound `COc1ccc(F)cc1C(=O)/N=c1\sc(C(C)(C)C)c(C)n1CC1CC1` [compound 262] has an IC50 of 0.6 nM.
Compound `COc1cccc(F)c1C(=O)/N=c1\sc(C(C)(C)C)c(C)n1CC1CC1` [compound 263] has an IC50 of 0.6 nM.
`COc1cc(Cl)ccc1C(=O)/N=c1\sc(C(C)(C)C)c(C)n1CC1CC1` [compound 264] gave an IC50 of 1 nM.
With `COc1ccc(Cl)cc1C(=O)/N=c1\sc(C(C)(C)C)c(C)n1CC1CC1` [compound 265] the IC50 was 1 nM.
Work on `COc1ccc(C(=O)/N=c2\sc(C(C)(C)C)c(C)n2CC2CC2)c(OC)c1OC` [compound 286] yielded an IC50 of 12.7 nM.
`Cc1c(C(C)(C)C)s/c(=N\C(=O)c2c(F)ccc(C(F)(F)F)c2F)n1CC1CC1` [compound 288] showed an IC50 of 0.2 nM.
Compound `Cc1c(C(C)(C)C)s/c(=N\C(=O)c2c(C(F)(F)F)ccc(Cl)c2F)n1CC1CC1` [compound 289] has an IC50 of 0.5 nM.
For `Cc1ccnc(C)c1C(=O)/N=c1\sc(C(C)(C)C)c(C)n1CC1CC1` [compound 299], the IC50 was 2.8 nM.
With `Cc1c(C(C)(C)C)s/c(=N\C(=O)c2cccnc2Cl)n1CC1CC1` [compound 301] the IC50 was 2 nM.
Compound `Cc1c(C(C)(C)C)s/c(=N\C(=O)c2ncccc2Br)n1CC1CC1` [compound 304] has an IC50 of 2.3 nM.
With `Cc1c(C(C)(C)C)s/c(=N\C(=O)c2nc(Cl)ccc2Cl)n1CC1CC1` [compound 306] the IC50 was 0.5 nM.
`Cc1c(C(C)(C)C)s/c(=N\C(=O)c2c(Cl)cncc2Cl)n1CC1CC1` [compound 308] showed an IC50 of 3.6 nM.
With `Cc1c(C(C)(C)C)s/c(=N\C(=O)c2cc(Cl)cnc2Cl)n1CC1CC1` [compound 309] the IC50 was 2.1 nM.
For `Cc1c(C(C)(C)C)s/c(=N\C(=O)c2ccnc3ccccc23)n1CC1CC1` [compound 323], the IC50 was 6.2 nM.
Compound `Cc1c(C(C)(C)C)s/c(=N\C(=O)c2c(Cl)ccc3cc(Cl)cnc23)n1CC1CC1` [compound 327] has an IC50 of 3.6 nM.
`Cc1c(C(C)(C)C)s/c(=N\C(=O)C2CCCCC2)n1CC1CC1` [compound 332] gave an IC50 of 3.3 nM.
For `CCOCCn1/c(=N/C(=O)c2cccc(Cl)c2Cl)cc(C(C)(C)C)n1C` [compound 486], the IC50 was 5.1 nM.
Compound `CCOCCn1/c(=N/C(=O)c2cccc(C)c2Br)cc(C(C)(C)C)n1C` [compound 487] has an IC50 of 9.9 nM.
Compound `CCOCCn1/c(=N/C(=O)c2cccc(Cl)c2C)cc(C(C)(C)C)n1C` [compound 490] has an IC50 of 10 nM.
In the case of `CCOCCn1/c(=N/C(=O)c2cccc(Br)c2C)cc(C(C)(C)C)n1C` [compound 491], the IC50 is reported as 9.3 nM.

Molecular target: T2, human CB1 receptor (Homo sapiens, UniProt P21554)
T2 construct: expressed in transfected cells
T2 sequence (P21554 whole entry): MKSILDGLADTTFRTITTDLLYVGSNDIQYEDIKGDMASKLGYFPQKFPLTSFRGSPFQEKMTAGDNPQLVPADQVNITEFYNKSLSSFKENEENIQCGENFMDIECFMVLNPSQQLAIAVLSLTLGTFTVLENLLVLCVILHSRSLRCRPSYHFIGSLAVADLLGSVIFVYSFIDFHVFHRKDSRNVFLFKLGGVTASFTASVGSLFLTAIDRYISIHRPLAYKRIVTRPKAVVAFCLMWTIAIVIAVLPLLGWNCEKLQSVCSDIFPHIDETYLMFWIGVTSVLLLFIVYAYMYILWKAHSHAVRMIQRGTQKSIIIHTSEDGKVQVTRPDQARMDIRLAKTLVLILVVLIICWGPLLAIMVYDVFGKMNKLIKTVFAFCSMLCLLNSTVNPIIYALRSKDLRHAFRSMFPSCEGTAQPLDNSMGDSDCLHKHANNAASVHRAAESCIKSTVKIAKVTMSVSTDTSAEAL
Assay: Human CB1 receptor binding inhibition test
Details: CHO-DHFR(−) cells stably expressing human CB1 receptor, same manner as Experimental Example 1
Experimental: Human CB1 Receptor Binding Inhibition Test
The CHO-DHFR(−) cells capable of stably expressing a CB1 receptor were prepared in the same manner as in Experimental Example 1. The binding test to the human CB1 receptor was performed to obtain 50% inhibitory concentration (IC50 value) of a test compound.
Compound `COc1ccc(C(=O)/N=c2\sc(C(C)(C)C)c(C)n2CC2CC2)c(C)c1` [compound 261] has an IC50 of 375 nM.
With `COc1ccc(F)cc1C(=O)/N=c1\sc(C(C)(C)C)c(C)n1CC1CC1` [compound 262] the IC50 was 435 nM.
Work on `COc1cccc(F)c1C(=O)/N=c1\sc(C(C)(C)C)c(C)n1CC1CC1` [compound 263] yielded an IC50 of 56 nM.
In the case of `COc1cc(Cl)ccc1C(=O)/N=c1\sc(C(C)(C)C)c(C)n1CC1CC1` [compound 264], the IC50 is reported as 181 nM.
With `COc1ccc(Cl)cc1C(=O)/N=c1\sc(C(C)(C)C)c(C)n1CC1CC1` [compound 265] the IC50 was 100 nM.
With `COc1ccc(C(=O)/N=c2\sc(C(C)(C)C)c(C)n2CC2CC2)c(OC)c1OC` [compound 286] the IC50 was 435 nM.
Compound `Cc1c(C(C)(C)C)s/c(=N\C(=O)c2c(F)ccc(C(F)(F)F)c2F)n1CC1CC1` [compound 288] has an IC50 of 49 nM.
For `Cc1c(C(C)(C)C)s/c(=N\C(=O)c2c(C(F)(F)F)ccc(Cl)c2F)n1CC1CC1` [compound 289], the IC50 was 136 nM.
`Cc1ccnc(C)c1C(=O)/N=c1\sc(C(C)(C)C)c(C)n1CC1CC1` [compound 299] showed an IC50 of 28 nM.
`Cc1c(C(C)(C)C)s/c(=N\C(=O)c2cccnc2Cl)n1CC1CC1` [compound 301] gave an IC50 of 191 nM.
With `Cc1c(C(C)(C)C)s/c(=N\C(=O)c2ncccc2Br)n1CC1CC1` [compound 304] the IC50 was 372 nM.
For `Cc1c(C(C)(C)C)s/c(=N\C(=O)c2nc(Cl)ccc2Cl)n1CC1CC1` [compound 306], the IC50 was 68 nM.
With `Cc1c(C(C)(C)C)s/c(=N\C(=O)c2c(Cl)cncc2Cl)n1CC1CC1` [compound 308] the IC50 was 336 nM.
With `Cc1c(C(C)(C)C)s/c(=N\C(=O)c2cc(Cl)cnc2Cl)n1CC1CC1` [compound 309] the IC50 was 405 nM.
`Cc1c(C(C)(C)C)s/c(=N\C(=O)c2ccnc3ccccc23)n1CC1CC1` [compound 323] showed an IC50 of 362 nM.
In the case of `Cc1c(C(C)(C)C)s/c(=N\C(=O)c2c(Cl)ccc3cc(Cl)cnc23)n1CC1CC1` [compound 327], the IC50 is reported as 55 nM.
Work on `Cc1c(C(C)(C)C)s/c(=N\C(=O)C2CCCCC2)n1CC1CC1` [compound 332] yielded an IC50 of 98 nM.
In the case of `CCOCCn1/c(=N/C(=O)c2cccc(Cl)c2Cl)cc(C(C)(C)C)n1C` [compound 486], the IC50 is reported as 211 nM.
Work on `CCOCCn1/c(=N/C(=O)c2cccc(C)c2Br)cc(C(C)(C)C)n1C` [compound 487] yielded an IC50 of 248 nM.
For `CCOCCn1/c(=N/C(=O)c2cccc(Cl)c2C)cc(C(C)(C)C)n1C` [compound 490], the IC50 was 291 nM.
`CCOCCn1/c(=N/C(=O)c2cccc(Br)c2C)cc(C(C)(C)C)n1C` [compound 491] gave an IC50 of 172 nM.

System: not given
Assay: not given
Details: not given
For `COc1ccc(C(=O)/N=c2\sc(C(C)(C)C)c(C)n2CC2CC2)c(C)c1` [compound 261], the melting point was 95 to 96 °C.
Work on `COc1ccc(F)cc1C(=O)/N=c1\sc(C(C)(C)C)c(C)n1CC1CC1` [compound 262] yielded a melting point of 87 to 89 °C.
`COc1cccc(F)c1C(=O)/N=c1\sc(C(C)(C)C)c(C)n1CC1CC1` [compound 263] showed a melting point of 119 to 121 °C.
With `COc1cc(Cl)ccc1C(=O)/N=c1\sc(C(C)(C)C)c(C)n1CC1CC1` [compound 264] the melting point was 163 to 165 °C.
In the case of `COc1ccc(Cl)cc1C(=O)/N=c1\sc(C(C)(C)C)c(C)n1CC1CC1` [compound 265], the melting point is reported as 98 to 100 °C.
For `COc1ccc(C(=O)/N=c2\sc(C(C)(C)C)c(C)n2CC2CC2)c(OC)c1OC` [compound 286], the melting point was 88 to 89 °C.
For `Cc1c(C(C)(C)C)s/c(=N\C(=O)c2c(F)ccc(C(F)(F)F)c2F)n1CC1CC1` [compound 288], the melting point was 109 to 111 °C.
In the case of `Cc1c(C(C)(C)C)s/c(=N\C(=O)c2c(C(F)(F)F)ccc(Cl)c2F)n1CC1CC1` [compound 289], the melting point is reported as 182 to 183 °C.
Work on `Cc1ccnc(C)c1C(=O)/N=c1\sc(C(C)(C)C)c(C)n1CC1CC1` [compound 299] yielded a melting point of 156 to 157 °C.
Work on `Cc1c(C(C)(C)C)s/c(=N\C(=O)c2cccnc2Cl)n1CC1CC1` [compound 301] yielded a melting point of 124 to 125 °C.
`Cc1c(C(C)(C)C)s/c(=N\C(=O)c2ncccc2Br)n1CC1CC1` [compound 304] showed a melting point of 141 to 142 °C.
`Cc1c(C(C)(C)C)s/c(=N\C(=O)c2nc(Cl)ccc2Cl)n1CC1CC1` [compound 306] showed a melting point of 143 to 145 °C.
`Cc1c(C(C)(C)C)s/c(=N\C(=O)c2c(Cl)cncc2Cl)n1CC1CC1` [compound 308] gave a melting point of 260 to 261 °C.
In the case of `Cc1c(C(C)(C)C)s/c(=N\C(=O)c2cc(Cl)cnc2Cl)n1CC1CC1` [compound 309], the melting point is reported as 113 to 134 °C.
`Cc1c(C(C)(C)C)s/c(=N\C(=O)c2ccnc3ccccc23)n1CC1CC1` [compound 323] showed a melting point of 124 to 126 °C.
`Cc1c(C(C)(C)C)s/c(=N\C(=O)c2c(Cl)ccc3cc(Cl)cnc23)n1CC1CC1` [compound 327] showed a melting point of 172 to 174 °C.
`Cc1c(C(C)(C)C)s/c(=N\C(=O)C2CCCCC2)n1CC1CC1` [compound 332] gave a melting point of 141 to 142 °C.
With `CCOCCn1/c(=N/C(=O)c2cccc(Cl)c2Cl)cc(C(C)(C)C)n1C` [compound 486] the melting point was 145 to 146 °C.
For `CCOCCn1/c(=N/C(=O)c2cccc(C)c2Br)cc(C(C)(C)C)n1C` [compound 487], the melting point was 166 to 167 °C.
Compound `CCOCCn1/c(=N/C(=O)c2cccc(Cl)c2C)cc(C(C)(C)C)n1C` [compound 490] has a melting point of 127 to 128 °C.
With `CCOCCn1/c(=N/C(=O)c2cccc(Br)c2C)cc(C(C)(C)C)n1C` [compound 491] the melting point was 125 to 126 °C.
